The text below walks through data of ChEMBL document CHEMBL1149631, “Synthesis of 3,8,9-trisubstituted-1,7,9-triaza-fluorene-6-carboxylic acid derivatives as a new class of insulin secretagogues” (Bioorg Med Chem, 2007).

Molecules are shown by their SMILES. Activity calls are given as the source filed them. No cut-off for these calls is given here.

Experiment [1] is described as follows: Displacement of [3H]idazoxan from I2-imidazoline binding site in rabbit kidney membrane. It is filed as cell membranes, Oryctolagus cuniculus.
The nature of experiment [2]: Displacement of [3H]clonidine from I1-imidazoline binding site in bovine adrenal medulla plasma membrane. The experiment is classed as tissue-based, Bos taurus. On the technique in general: In a radioligand displacement assay an active substance lowers the binding of a labelled ligand.
The nature of experiment [3]: Effect on glucose-dependent insulin secretion activity per ug of total protein in rat RIN5F cells at 1 uM after 30 mins. The experiment is classed as functional.
Experiment [4] is described as follows: Effect on glucose-dependent insulin secretion activity per ug of total protein in rat RIN5F cells at 0.1 uM after 30 mins. The experiment is classed as functional.
Experiment [5] is described as follows: Effect on glucose-dependent insulin secretion activity per ug of total protein in rat RIN5F cells at 10 uM after 30 mins. It is filed as functional.
Experiment [6] is described as follows: Displacement of [3H]clonidine from alpha-2-adrenoceptor in cerebral cortex of rat brain. It is filed as tissue-based.
The nature of experiment [7]: Effect on insulin secretion activity per ug of total protein in rat RIN5F cells at 0.1 uM after 30 mins. It is filed as functional.
A short description of experiment [8]: Effect on insulin secretion activity per ug of total protein in rat RIN5F cells at 1 uM after 30 mins. The experiment is classed as functional.
The species entered for experiment [9] is Rattus norvegicus. The experiment is described as follows: Displacement of [3H]clonidine from alpha2-AR in cerebral cortex of rat brain upto 100 uM. It is filed as tissue-based.
For experiment [10], the species on record is Oryctolagus cuniculus. The experiment is described as follows: Displacement of [3H]idazoxan from I2-imidazoline binding site in rabbit kidney membrane upto 100 uM. The experiment is classed as cell membranes.
The species named for experiment [11] is Bos taurus. Put plainly: Displacement of [3H]clonidine from I1-imidazoline binding site in bovine adrenal medulla plasma membrane upto 100 uM. It is filed as tissue-based.

Usually Ki stands for the dissociation constant of the complex between target and ligand, obtained from inhibition or displacement.

Regarding `Cc1nccc2c1[nH]c1ccccc12` [HARMAN], the Ki in [1] is 0.054 µM; in experiment [2], 0.036 µM; in experiment [6], greater than 12 µM. The Activity in experiment [3] amounted to 27 pg/µg/h; in [4] it was 20 pg/µg/h; in experiment [5], 37 pg/µg/h.
As to `CCCCNC(=O)NS(=O)(=O)c1ccc(C)cc1` [TOLBUTAMIDE], the Activity in experiment [3] came out at 27.1 pg/µg/h; in [4] it was 19.9 pg/µg/h; in [7] it was 19.6 pg/µg/h; in [8] it was 26 pg/µg/h.
On to `COC(=O)c1cc2c3cc(C)cnc3n(C)c2c(Cc2ccccc2)n1`, for which the result in experiment [9], in [10] and in experiment [11] was inactive. The Activity in experiment [3] was found to be 16.1 pg/µg/h; in [4], 15.9 pg/µg/h; in [5], 16.9 pg/µg/h.
As to `Cc1cnc2[nH]c3c(C)nc(C(=O)O)cc3c2c1`, the Activity in [3] stood at 18.5 pg/µg/h; in [4], 16.2 pg/µg/h; in experiment [5], 21.1 pg/µg/h.
For `COC(=O)c1cc2c(cn1)[nH]c1ncc(C)cc12`, the Activity was 13.2 pg/µg/h in experiment [3], 13.1 pg/µg/h in experiment [4] and 13.9 pg/µg/h in experiment [5].
On the same counts, the results for `COC(=O)c1cc2c3cc(C)cnc3n(C)c2c(-c2ccccc2)n1` are 15.6 pg/µg/h, 15.1 pg/µg/h and 16.2 pg/µg/h.
Consider `O=C(O)c1cc2c([nH]c3ncccc32)c(C2CCCCC2)n1`, for which the Activity in experiment [3] was found to be 17.1 pg/µg/h; in experiment [4] it was 15.5 pg/µg/h; in experiment [5] it was 20.4 pg/µg/h.
In the same order, the values of `COC(=O)C1Cc2c([nH]c3ncccc23)C(C)N1` (stereo unspecified) are 10.6 pg/µg/h, 10.1 pg/µg/h and 10.9 pg/µg/h.
For `COC(=O)c1cc2c3cccnc3n(C)c2c(C)n1`, the Activity was determined as 13.9 pg/µg/h in [3], 13.4 pg/µg/h in [4] and 14.1 pg/µg/h in experiment [5].
As to `COC(=O)C1Cc2c(n(C)c3ncc(C)cc23)C(Cc2ccccc2)N1` (stereo unspecified), the result in experiment [9], in experiment [10] and in experiment [11] was inactive. Further, the results for the Activity in experiment [3], in [4] and in experiment [5] were 15.9 pg/µg/h, 15.1 pg/µg/h and 16.8 pg/µg/h, respectively.
As to `Cc1cnc2c(c1)c1cc(C(=O)O)nc(Cc3ccccc3)c1n2C`, the outcome in experiment [9], in [10] and in experiment [11] was inactive. For the same molecule, the Activity came to 28.1 pg/µg/h in [3], 20 pg/µg/h in experiment [4] and 38.3 pg/µg/h in experiment [5].
As to `COC(=O)C1Cc2c(n(C)c3ncccc23)C(C2CCCCC2)N1` (stereo unspecified), the Activity in experiment [3] came out at 11.5 pg/µg/h; in experiment [4], 10.9 pg/µg/h; in experiment [5], 11.9 pg/µg/h.
Take `Cn1c2ncccc2c2cc(C(=O)O)nc(-c3ccccc3)c21`: the Activity in experiment [3] is 19.3 pg/µg/h; in [4], 17.2 pg/µg/h; in experiment [5], 21.1 pg/µg/h.
`COC(=O)c1cc2c([nH]c3ncccc32)c(Cc2ccccc2)n1`: the Activity in experiment [3] was found to be 13 pg/µg/h; in experiment [4], 12.9 pg/µg/h; in experiment [5], 13.5 pg/µg/h.
In the same order, the values of `COC(=O)c1cc2c([nH]c3ncccc32)c(C)n1` are 12.1 pg/µg/h, 11 pg/µg/h and 12.5 pg/µg/h.
Consider `COC(=O)C1Cc2c([nH]c3ncc(C)cc23)C(Cc2ccccc2)N1` (stereo unspecified), for which the Activity in [3] was found to be 12.2 pg/µg/h; in experiment [4], 11.5 pg/µg/h; in experiment [5], 12.9 pg/µg/h.
